Among the data in US11420958B2, “Aryl and heteroaryl substituted indole compounds” (BRISTOL-MYERS SQUIBB COMPANY, priority 2017, dated 2022) are IC50 values, retold here.

What all share (type): cell-based
The target of one assay is human TLR7 (Homo sapiens (Human), UniProt Q9NYK1). Briefly: TLR7 inhibition reporter assay (HEK-Blue, SEAP). The settings on record: HEK-Blue cells overexpressing human TLR7, gardiquimod 7.5 μM stimulation. In outline: (§1)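 HEK-Blue cells expressing human TLR7, TLR8 or TLR9 with NF-κB/AP-1-driven SEAP reporter; compounds 0.05 nM–50 μM, 30 min pre-treatment at room temperature. Stimulated with gardiquimod 7.5 μM (TLR7), R848 15.9 μM (TLR8) or ODN2006 5 nM (TLR9), 22 h at 37 °C; % inhibition of SEAP signal relative to agonist+DMSO and known-inhibitor wells.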

In the next assay the target is human TLR8 (Homo sapiens (Human), UniProt Q9NR97). Description: TLR8 inhibition reporter assay (HEK-Blue, SEAP). The settings on record: HEK-Blue cells overexpressing human TLR8, R848 15.9 μM stimulation. Summed up: as §1
The next assay concerns the target human TLR9 (Homo sapiens (Human), UniProt Q9NR96). Description: TLR9 inhibition reporter assay (HEK-Blue, SEAP). The settings on record: HEK-Blue cells overexpressing human TLR9, ODN2006 5 nM stimulation. Summed up:
as §1

Where only a bound is given, the exact number is not on record here.

Sequence of human TLR8 (Q9NR97 27-1041): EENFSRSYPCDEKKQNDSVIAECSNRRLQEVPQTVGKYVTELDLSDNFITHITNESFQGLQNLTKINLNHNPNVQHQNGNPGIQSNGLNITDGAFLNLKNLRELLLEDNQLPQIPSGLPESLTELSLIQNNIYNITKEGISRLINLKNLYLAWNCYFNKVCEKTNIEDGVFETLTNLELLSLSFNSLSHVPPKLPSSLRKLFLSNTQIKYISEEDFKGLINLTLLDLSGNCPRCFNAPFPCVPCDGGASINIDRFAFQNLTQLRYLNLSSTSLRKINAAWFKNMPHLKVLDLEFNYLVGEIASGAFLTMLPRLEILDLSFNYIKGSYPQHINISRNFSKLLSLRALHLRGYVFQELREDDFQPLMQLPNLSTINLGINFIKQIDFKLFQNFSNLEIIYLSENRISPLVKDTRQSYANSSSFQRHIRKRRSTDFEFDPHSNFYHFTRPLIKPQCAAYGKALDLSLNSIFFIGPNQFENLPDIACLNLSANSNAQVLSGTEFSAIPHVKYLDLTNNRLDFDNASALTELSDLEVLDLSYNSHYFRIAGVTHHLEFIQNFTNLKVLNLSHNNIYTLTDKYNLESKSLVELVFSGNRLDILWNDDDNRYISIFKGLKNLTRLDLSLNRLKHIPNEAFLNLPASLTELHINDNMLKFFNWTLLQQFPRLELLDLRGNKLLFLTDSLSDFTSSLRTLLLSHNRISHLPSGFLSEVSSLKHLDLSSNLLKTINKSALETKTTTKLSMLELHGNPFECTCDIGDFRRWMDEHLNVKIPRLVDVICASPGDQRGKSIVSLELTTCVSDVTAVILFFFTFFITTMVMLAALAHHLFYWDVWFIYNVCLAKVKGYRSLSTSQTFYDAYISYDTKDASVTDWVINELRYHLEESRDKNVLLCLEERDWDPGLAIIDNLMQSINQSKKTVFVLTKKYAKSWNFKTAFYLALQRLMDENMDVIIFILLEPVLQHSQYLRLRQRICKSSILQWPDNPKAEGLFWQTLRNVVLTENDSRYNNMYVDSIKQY
Sequence of human TLR9 (Q9NR96 26-1032): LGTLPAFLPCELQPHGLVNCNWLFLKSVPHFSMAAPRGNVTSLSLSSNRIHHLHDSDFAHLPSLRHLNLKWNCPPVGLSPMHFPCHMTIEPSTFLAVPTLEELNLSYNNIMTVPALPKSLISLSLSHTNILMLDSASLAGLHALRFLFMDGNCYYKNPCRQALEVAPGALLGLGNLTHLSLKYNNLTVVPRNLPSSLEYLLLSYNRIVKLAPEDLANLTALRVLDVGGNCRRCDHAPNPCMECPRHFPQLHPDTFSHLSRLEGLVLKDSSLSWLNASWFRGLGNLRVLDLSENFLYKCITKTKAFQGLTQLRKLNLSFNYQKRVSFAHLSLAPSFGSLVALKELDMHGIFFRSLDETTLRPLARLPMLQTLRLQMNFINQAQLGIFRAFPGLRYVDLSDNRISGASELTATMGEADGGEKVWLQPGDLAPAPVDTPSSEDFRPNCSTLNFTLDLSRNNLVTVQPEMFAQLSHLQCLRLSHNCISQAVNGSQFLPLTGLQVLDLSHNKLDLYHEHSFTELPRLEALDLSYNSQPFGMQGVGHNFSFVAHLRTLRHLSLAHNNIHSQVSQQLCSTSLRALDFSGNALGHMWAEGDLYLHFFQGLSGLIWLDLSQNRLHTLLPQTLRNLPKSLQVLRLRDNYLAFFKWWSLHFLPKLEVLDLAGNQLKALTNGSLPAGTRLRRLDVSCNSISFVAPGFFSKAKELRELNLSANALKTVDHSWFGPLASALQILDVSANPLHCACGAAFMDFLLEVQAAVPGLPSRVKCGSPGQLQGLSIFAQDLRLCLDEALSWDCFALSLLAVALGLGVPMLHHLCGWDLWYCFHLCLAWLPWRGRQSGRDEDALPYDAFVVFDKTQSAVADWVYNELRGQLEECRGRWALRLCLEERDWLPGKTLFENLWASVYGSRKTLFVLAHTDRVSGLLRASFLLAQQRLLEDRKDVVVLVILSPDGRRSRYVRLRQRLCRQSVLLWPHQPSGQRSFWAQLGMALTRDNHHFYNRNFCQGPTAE
Sequence of human TLR7 (Q9NYK1 27-1049): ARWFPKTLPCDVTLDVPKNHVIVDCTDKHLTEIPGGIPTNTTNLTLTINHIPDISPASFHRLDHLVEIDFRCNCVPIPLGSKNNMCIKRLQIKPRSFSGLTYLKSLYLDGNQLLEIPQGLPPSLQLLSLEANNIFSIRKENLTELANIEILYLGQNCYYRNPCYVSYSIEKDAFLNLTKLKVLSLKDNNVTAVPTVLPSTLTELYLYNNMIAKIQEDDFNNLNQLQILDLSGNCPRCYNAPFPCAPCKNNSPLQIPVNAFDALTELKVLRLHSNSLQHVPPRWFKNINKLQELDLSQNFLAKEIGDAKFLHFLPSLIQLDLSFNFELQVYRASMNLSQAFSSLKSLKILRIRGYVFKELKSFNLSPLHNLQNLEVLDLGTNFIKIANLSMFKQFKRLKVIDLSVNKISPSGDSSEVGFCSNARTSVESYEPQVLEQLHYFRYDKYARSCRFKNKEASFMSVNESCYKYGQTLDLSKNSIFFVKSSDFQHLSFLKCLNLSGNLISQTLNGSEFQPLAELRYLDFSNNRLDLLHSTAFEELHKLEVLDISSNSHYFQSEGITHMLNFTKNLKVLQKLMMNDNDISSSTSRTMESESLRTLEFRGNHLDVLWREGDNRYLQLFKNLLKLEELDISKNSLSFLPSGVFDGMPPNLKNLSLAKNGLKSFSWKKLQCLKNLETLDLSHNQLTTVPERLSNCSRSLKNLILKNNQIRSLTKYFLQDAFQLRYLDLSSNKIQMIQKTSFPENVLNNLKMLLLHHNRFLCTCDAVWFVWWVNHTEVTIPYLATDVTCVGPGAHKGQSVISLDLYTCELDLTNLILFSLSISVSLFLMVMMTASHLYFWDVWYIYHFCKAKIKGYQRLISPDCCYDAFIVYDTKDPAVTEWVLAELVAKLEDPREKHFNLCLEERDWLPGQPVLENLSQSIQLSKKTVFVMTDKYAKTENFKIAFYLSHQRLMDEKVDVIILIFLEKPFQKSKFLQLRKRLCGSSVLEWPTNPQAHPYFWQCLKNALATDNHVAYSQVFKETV

On to `Cc1cc(-c2[nH]c3ccc(-c4ccnc(C5CCN(C(C)C)CC5)c4)cc3c2C(C)C)cc(C)n1` [Example 345, 2-(2,6-dimethylpyridin-4-yl)-3-isopropyl-5-(2-(1-isopropylpiperidin-4-yl)pyridin-4-yl)-1H-indole], for which the IC50 was determined as 13 nM on human TLR7, 8.5 nM against human TLR8 and 183 nM at human TLR9.

Take `CNc1nnc(-c2ccc3[nH]c(-c4ccnc(C)c4)c(C(C)C)c3c2)o1` [Example 346, 5-(3-isopropyl-2-(2-methylpyridin-4-yl)-1H-indol-5-yl)-N-methyl-1,3,4-oxadiazol-2-amine]: the figures for the IC50 on human TLR7, against human TLR8 and against human TLR9 were 158 nM, 32 nM and more than 50000 nM, respectively.

Consider `Cc1cc(-c2[nH]c3ccc(-c4cn5cc(C)nc5cc4C)cc3c2C(C)C)cc(C)n1` [Example 347, 6-(2-(2,6-dimethylpyridin-4-yl)-3-isopropyl-1H-indol-5-yl)-2,7-dimethylimidazo[1,2-a]pyridine], for which the results for the IC50 against human TLR7, on human TLR8 and at human TLR9 were 6.6 nM, 6.9 nM and 592 nM, respectively.

With `Cc1cc(-c2[nH]c3ccc(-c4cn5cc(C)nc5cc4F)cc3c2C(C)C)cc(C)n1` [Example 348, 6-(2-(2,6-dimethylpyridin-4-yl)-3-isopropyl-1H-indol-5-yl)-7-fluoro-2-methylimidazo[1,2-a]pyridine], the IC50 was found to be 3.7 nM against human TLR7, 20 nM against human TLR8 and 3640 nM at human TLR9.

Turning to `Cc1cc(-c2[nH]c3ccc(-c4ccc(N)nn4)cc3c2C(C)C)cc(C)n1` [Example 349, 6-(2-(2,6-dimethylpyridin-4-yl)-3-isopropyl-1H-indol-5-yl)pyridazin-3-amine], the IC50 stood at 8.6 nM against human TLR7, 5.6 nM against human TLR8 and 2120 nM against human TLR9.

As for `Cc1cc(-c2[nH]c3ccc(-c4csc(N5CCCCC5)n4)cc3c2C(C)C)cc(C)n1` [Example 350, 4-(2-(2,6-dimethylpyridin-4-yl)-3-isopropyl-1H-indol-5-yl)-2-(piperidin-1-yl)thiazole], the concentration for half-maximal inhibition (IC50) at human TLR7 was 742 nM; against human TLR8 it was 685 nM; against human TLR9, more than 50000 nM.

With `Cc1cc(-c2[nH]c3ccc(-c4cc5c(s4)CN(C(=O)C[C@H](C)O)CC5)cc3c2C(C)C)cc(C)n1` [Example 351, (S)-1-(2-(2-(2,6-dimethylpyridin-4-yl)-3-isopropyl-1H-indol-5-yl)-4,7-dihydrothieno[2,3-c]pyridin-6(5H)-yl)-3-hydroxybutan-1-one], the IC50 is 64 nM against human TLR7, 46 nM at human TLR8 and 32900 nM against human TLR9.

`Cc1cc(-c2[nH]c3ccc(-c4cc5c(s4)CN(C(=O)C4CC(=O)N(C)C4)CC5)cc3c2C(C)C)cc(C)n1` (stereo not drawn) [Example 352, 4-(2-(2-(2,6-dimethylpyridin-4-yl)-3-isopropyl-1H-indol-5-yl)-4,5,6,7-tetrahydrothieno[2,3-c]pyridine-6-carbonyl)-1-methylpyrrolidin-2-one]: the IC50 against human TLR7 is 143 nM; against human TLR8, 49 nM; against human TLR9, 20400 nM.

On to `Cc1cc(-c2[nH]c3ccc(-c4cc5c(s4)CN(C(=O)CS(C)(=O)=O)CC5)cc3c2C(C)C)cc(C)n1` [Example 353, 1-(2-(2-(2,6-dimethylpyridin-4-yl)-3-isopropyl-1H-indol-5-yl)-4,7-dihydrothieno[2,3-c]pyridin-6(5H)-yl)-2-(methylsulfonyl)ethan-1-one], for which the IC50 at human TLR7 is 53 nM; at human TLR8, 39 nM; on human TLR9 it was more than 50000 nM.

With `Cc1cc(-c2[nH]c3ccc(-c4cn5c(n4)CNCC5)cc3c2C(C)C)cc(C)n1` [Example 354, 2-(2-(2,6-dimethylpyridin-4-yl)-3-isopropyl-1H-indol-5-yl)-5,6,7,8-tetrahydroimidazo[1,2-a]pyrazine], the results for the IC50 against human TLR7, at human TLR8 and at human TLR9 were 48 nM, 2.8 nM and 2100 nM, respectively.

As for `Cc1cc(-c2[nH]c3ccc(-c4ccn5ncnc5c4C)cc3c2C(C)C)cc(C)n1` [Example 355, 7-(2-(2,6-dimethylpyridin-4-yl)-3-isopropyl-1H-indol-5-yl)-8-methyl-[1,2,4]triazolo[1,5-a]pyridine], the IC50 on human TLR7 worked out at 57 nM; against human TLR8, 176 nM; on human TLR9 it was 25200 nM.

With `CNCC(=O)Nc1cnc(-c2ccc3[nH]c(-c4cc(C)nc(C)c4)c(C(C)C)c3c2)cn1` [Example 356, N-(5-(2-(2,6-dimethylpyridin-4-yl)-3-isopropyl-1H-indol-5-yl)pyrazin-2-yl)-2-(methylamino)acetamide], the IC50 against human TLR7 is 10 nM; on human TLR8, 4.6 nM; on human TLR9, 952 nM.

`Cc1cc(-c2[nH]c3ccc(-c4nnc(C5CCCN(C(C)C)C5)[nH]4)cc3c2C(C)C)cc(C)n1` (stereo not drawn) [Example 357, 2-(2,6-dimethylpyridin-4-yl)-3-isopropyl-5-(5-(1-isopropylpiperidin-3-yl)-4H-1,2,4-triazol-3-yl)-1H-indole]: the IC50 stood at 4.4 nM against human TLR7, 1.4 nM at human TLR8 and 205 nM against human TLR9.

For the compound `Cc1cc(-c2[nH]c3ccc(-c4nnc(C5CCCN(C(C)C)C5)[nH]4)cc3c2C(C)C)cc(C)n1` (stereo not drawn) [Example 358, 2-(2,6-dimethylpyridin-4-yl)-3-isopropyl-5-(5-(1-isopropylpiperidin-3-yl)-4H-1,2,4-triazol-3-yl)-1H-indole], the IC50 worked out at 4.9 nM on human TLR7, 1.6 nM at human TLR8 and 157 nM against human TLR9.

Take `Cc1cc(-c2[nH]c3ccc(-c4cnc(N)cn4)cc3c2C(C)C)ccn1` [Example 359, 5-(3-isopropyl-2-(2-methylpyridin-4-yl)-1H-indol-5-yl)pyrazin-2-amine]: the results for the IC50 on human TLR7, at human TLR8 and at human TLR9 were 17 nM, 7.5 nM and 14400 nM, respectively.

Turning to `Cc1cc(-c2[nH]c3ccc(-c4ccc(N)nn4)cc3c2C(C)C)ccn1` [Example 360, 6-(3-isopropyl-2-(2-methylpyridin-4-yl)-1H-indol-5-yl)pyridazin-3-amine], the IC50 came to 58 nM at human TLR7, 16 nM against human TLR8 and 27000 nM against human TLR9.

As for `Cc1cc(-c2[nH]c3ccc(-c4cc5c(s4)CN(C)CC5)cc3c2C(C)C)cc(C)n1` [Example 361, 2-(2-(2,6-dimethylpyridin-4-yl)-3-isopropyl-1H-indol-5-yl)-6-methyl-4,5,6,7-tetrahydrothieno[2,3-c]pyridine], the figures for the IC50 on human TLR7, at human TLR8 and against human TLR9 were 6 nM, 1.5 nM and 490 nM, respectively.

For the compound `CC(=O)N1CCc2nc(-c3ccc4[nH]c(-c5cc(C)nc(C)c5)c(C(C)C)c4c3)sc2C1` [Example 362, 1-(2-(2-(2,6-dimethylpyridin-4-yl)-3-isopropyl-1H-indol-5-yl)-6,7-dihydrothiazolo[5,4-c]pyridin-5(4H)-yl)ethan-1-one], the IC50 at human TLR7 is 6.4 nM; against human TLR8, 9 nM; against human TLR9, more than 50000 nM.

`Cc1cc(-c2[nH]c3ccc(-c4nc5c(s4)CN(C(=O)CN(C)C)CC5)cc3c2C(C)C)cc(C)n1` [Example 363, 2-(dimethylamino)-1-(2-(2-(2,6-dimethylpyridin-4-yl)-3-isopropyl-1H-indol-5-yl)-6,7-dihydrothiazolo[5,4-c]pyridin-5(4H)-yl)ethan-1-one]: the IC50 at human TLR7 was 0.8 nM; at human TLR8 it was 2.3 nM; against human TLR9 it was 151 nM.

Take `Cc1cc(-c2[nH]c3ccc(-c4nc5c(s4)CN(C(=O)C4CC(=O)N(C)C4)CC5)cc3c2C(C)C)cc(C)n1` (stereo not drawn) [Example 364, 4-(2-(2-(2,6-dimethylpyridin-4-yl)-3-isopropyl-1H-indol-5-yl)-4,5,6,7-tetrahydrothiazolo[5,4-c]pyridine-5-carbonyl)-1-methylpyrrolidin-2-one]: the IC50 against human TLR7 was 20 nM; against human TLR8, 11 nM; on human TLR9 it was more than 50000 nM.

As for `Cc1cc(-c2[nH]c3ccc(-c4cnc(NC(=O)CN(C)C)cn4)cc3c2C(C)C)ccn1` [Example 365, 2-(dimethylamino)-N-(5-(3-isopropyl-2-(2-methylpyridin-4-yl)-1H-indol-5-yl)pyrazin-2-yl)acetamide], the results for the IC50 against human TLR7, against human TLR8 and at human TLR9 were 7.3 nM, 1.6 nM and 1290 nM, respectively.

`Cc1cc(-c2[nH]c3ccc(-c4cc(F)c5nc(C)cn5c4)cc3c2C(C)C)cc(C)n1` [Example 366, 6-(2-(2,6-dimethylpyridin-4-yl)-3-isopropyl-1H-indol-5-yl)-8-fluoro-2-methylimidazo[1,2-a]pyridine]: the half-inhibitory concentration (IC50) on human TLR7 was 63 nM; on human TLR8 it was 84 nM; on human TLR9, 11500 nM.

For `Cc1cc(-c2[nH]c3ccc(-c4nnc(C5CCN(C)CC5)o4)cc3c2C(C)C)cn2ncnc12` [Example 367, 2-(3-isopropyl-2-(8-methyl-[1,2,4]triazolo[1,5-a]pyridin-6-yl)-1H-indol-5-yl)-5-(1-methylpiperidin-4-yl)-1,3,4-oxadiazole], the values for the IC50 against human TLR7, at human TLR8 and at human TLR9 were 0.37 nM, 0.6 nM and 673 nM, respectively.

With `COc1ccc(-c2[nH]c3ccc(-c4cccc(N5CCN(C)CC5)c4)cc3c2C(C)C)cc1OC` [Example 369, 2-(3,4-dimethoxyphenyl)-3-isopropyl-5-(3-(4-methylpiperazin-1-yl)phenyl)-1H-indole], the IC50 against human TLR7 was determined as 2110 nM; against human TLR8, 64 nM; at human TLR9, 2300 nM.

For the compound `COc1ccc(-c2[nH]c3ccc(-c4cccc(N5CCN(C(C)C)CC5)c4)cc3c2C(C)C)cc1OC` [Example 370, 2-(3,4-dimethoxyphenyl)-3-isopropyl-5-(3-(4-isopropylpiperazin-1-yl)phenyl)-1H-indole], the IC50 against human TLR7 was 3920 nM; against human TLR8 it was 93 nM; at human TLR9, 4840 nM.
